Measurements published in patent US4100274A, “Polypeptide” (Imperial Chemical Industries Limited, priority 1976, dated 1978).

assay: toxic effects at multiples of the minimum active dose; format: in vivo, rats; conditions: dosed at one hundred times their minimum effective dose

Row | Structure (SMILES) | toxic effects
1 | CC(C)C[C@H](NC(=O)[C@@H](Cc1ccccc1)NC(=O)[C@H](Cc1ccc(O)cc1)NC(=O)[C@H](CO)NC(=O)[C@H](Cc1c[nH]c2ccccc12)NC(=O)[C@H](Cc1c[nH]cn1)NC(=O)[C@@H]1CCC(=O)N1)C(=O)N[C@@H](CCCNC(=N)N)C(=O)N1CCC[C@H]1C(=O)NNC(N)=O [Example 4] | no toxic effects
2 | COc1ccc(C[C@@H](NC(=O)[C@H](Cc2ccc(O)cc2)NC(=O)[C@H](CO)NC(=O)[C@H](Cc2c[nH]c3ccccc23)NC(=O)[C@H](Cc2c[nH]cn2)NC(=O)[C@@H]2CCC(=O)N2)C(=O)N[C@@H](CC(C)C)C(=O)N[C@@H](CCCNC(=N)N)C(=O)N2CCC[C@H]2C(=O)NNC(N)=O)cc1 [Example 6] | no toxic effects
3 | CC(C)C[C@H](NC(=O)[C@@H](COC(C)(C)C)NC(=O)[C@H](Cc1ccc(O)cc1)NC(=O)[C@H](CO)NC(=O)[C@H](Cc1c[nH]c2ccccc12)NC(=O)[C@H](Cc1cnc[nH]1)NC(=O)[C@@H]1CCC(=O)N1)C(=O)N[C@@H](CCCNC(=N)N)C(=O)N1CCC[C@H]1C(=O)NNC(N)=O [Example 7] | no toxic effects
